Results as given in the Kinase Knowledgebase extract (Sharma et al. 2016).

Target: EGFR (human) (UniProt P00533)
Sequence (P00533 whole entry, looked up): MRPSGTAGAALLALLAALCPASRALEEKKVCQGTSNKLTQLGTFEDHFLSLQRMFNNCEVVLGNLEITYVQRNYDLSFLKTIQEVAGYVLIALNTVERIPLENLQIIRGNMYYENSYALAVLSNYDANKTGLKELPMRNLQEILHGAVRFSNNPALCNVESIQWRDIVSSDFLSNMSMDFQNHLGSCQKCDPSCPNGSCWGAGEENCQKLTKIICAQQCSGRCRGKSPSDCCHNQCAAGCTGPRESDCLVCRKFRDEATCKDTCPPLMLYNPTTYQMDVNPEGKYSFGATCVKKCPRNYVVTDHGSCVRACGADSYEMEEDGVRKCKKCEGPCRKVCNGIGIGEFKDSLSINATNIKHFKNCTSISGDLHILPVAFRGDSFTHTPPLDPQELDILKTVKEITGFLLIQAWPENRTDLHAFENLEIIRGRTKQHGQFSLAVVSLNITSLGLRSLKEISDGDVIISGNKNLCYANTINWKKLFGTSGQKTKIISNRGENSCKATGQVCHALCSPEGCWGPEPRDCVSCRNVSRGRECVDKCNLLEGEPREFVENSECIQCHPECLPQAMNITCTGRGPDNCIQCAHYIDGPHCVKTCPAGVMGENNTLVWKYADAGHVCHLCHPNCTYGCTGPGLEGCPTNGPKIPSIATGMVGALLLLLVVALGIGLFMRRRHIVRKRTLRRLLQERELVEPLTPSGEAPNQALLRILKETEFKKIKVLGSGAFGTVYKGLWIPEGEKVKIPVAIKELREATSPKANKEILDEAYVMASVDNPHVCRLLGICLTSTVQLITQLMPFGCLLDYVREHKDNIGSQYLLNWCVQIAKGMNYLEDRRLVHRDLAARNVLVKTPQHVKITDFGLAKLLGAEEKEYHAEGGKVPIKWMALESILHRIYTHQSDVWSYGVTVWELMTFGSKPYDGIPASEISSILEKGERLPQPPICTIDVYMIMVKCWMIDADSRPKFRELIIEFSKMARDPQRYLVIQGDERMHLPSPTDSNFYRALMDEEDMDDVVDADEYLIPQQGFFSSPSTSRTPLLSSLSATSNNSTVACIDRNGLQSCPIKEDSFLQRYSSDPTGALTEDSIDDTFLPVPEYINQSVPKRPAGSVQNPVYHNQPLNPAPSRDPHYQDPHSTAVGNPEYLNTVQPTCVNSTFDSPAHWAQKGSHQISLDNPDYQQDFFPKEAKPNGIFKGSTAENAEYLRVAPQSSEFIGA

Row | Compound | IC50 [nM]
1 | O=S(=O)(Nc1cccc(-c2ncsc2-c2ccnc(Nc3ccc(N4CCOCC4)nc3)n2)c1)c1c(F)cccc1F | 100 to 1000
2 | COc1cc2c(cc1Nc1nccc(-c3sc(C(C)C)nc3-c3cccc(NS(=O)(=O)c4c(F)cccc4F)c3)n1)N(C(=O)CN(C)C)CC2 | 100 to 1000
3 | O=S(=O)(Nc1cccc(-c2nc(N3CCCC3)sc2-c2ccnc(Nc3ccc(N4CCN(CCF)CC4)c(F)c3)n2)c1)c1c(F)cccc1F | < 100
4 | CCOc1ccc(Nc2nccc(-c3sc(C(C)C)nc3-c3ccc(F)c(NS(=O)(=O)c4c(F)cccc4F)c3)n2)cc1N1CCN(CCF)CC1 | < 100
5 | CC(C)c1nc(-c2cccc(NS(=O)(=O)c3c(F)cccc3F)c2)c(-c2ccnc(Nc3ccc(N4CCN(C(C)C)CC4)cc3O)n2)s1 | 100 to 1000
6 | COc1ccc(S(C)(=O)=O)cc1Nc1nccc(-c2sc(C(C)C)nc2-c2cccc(NS(=O)(=O)c3c(F)cccc3F)c2F)n1 | 100 to 1000
7 | COc1cc(OCCN2CCOCC2)c(C)cc1Nc1nccc(-c2sc(C(C)C)nc2-c2cccc(NS(=O)(=O)c3c(F)cccc3F)c2F)n1 | 100 to 1000
8 | COc1cc(N2CCN(CCS(C)(=O)=O)CC2)c(C)cc1Nc1nccc(-c2sc(C(C)C)nc2-c2cccc(NS(=O)(=O)c3c(F)cccc3F)c2F)n1 | < 100
9 | CC(=O)N1CCN(c2ccc(Nc3nccc(-c4sc(C(C)C)nc4-c4cccc(NS(=O)(=O)c5cccc(F)c5)c4)n3)cn2)CC1 | 100 to 1000
10 | CC(C)c1nc(-c2cccc(NS(=O)(=O)c3c(F)cccc3F)c2)c(-c2ccnc(Nc3ccc(N4CC[C@@H](O)C4)nc3)n2)s1 | 100 to 1000

Continued, values first:

Row | IC50 [nM] | Compound
11 | 100 to 1000 | CC(C)c1nc(-c2cccc(NS(=O)(=O)c3cccnc3)c2)c(-c2ccnc(Nc3ccc(N4CCOCC4)nc3)n2)s1
12 | 100 to 1000 | COc1cc(CCN2CCCCC2)c(F)cc1Nc1nccc(-c2sc(C(C)C)nc2-c2cccc(NS(=O)(=O)c3c(F)cccc3F)c2)n1
13 | 100 to 1000 | CC(=O)N1CCc2cc(Nc3nccc(-c4sc(C(C)C)nc4-c4cccc(NS(=O)(=O)c5ccccc5)c4)n3)ccc21
14 | 100 to 1000 | O=S(=O)(Nc1cc(-c2nc(N3CCOCC3)sc2-c2ccnc(Nc3ccc(N4CCOCC4)nc3)n2)ccc1F)c1c(F)cccc1F
15 | 100 to 1000 | Nc1nc(-c2ccc(F)c(NS(=O)(=O)c3c(F)cccc3F)c2)c(-c2ccnc(Nc3ccc(N4CCOCC4)nc3)n2)s1
16 | 100 to 1000 | CC(C)c1nc(-c2ccc(F)c(NS(=O)(=O)c3c(F)cccc3F)c2)c(-c2ccnc(Nc3cccc(CCS(N)(=O)=O)c3)n2)s1
17 | 100 to 1000 | CCc1nc(-c2ccc(F)c(NS(=O)(=O)c3ccccc3)c2)c(-c2ccnc(Nc3ccc(N4CCN(C(C)C)CC4)cc3OC)n2)s1
18 | 100 to 1000 | CC(C)c1nc(-c2cccc(NS(=O)(=O)c3c(F)cccc3F)c2)c(-c2ccnc(Nc3ccc(N4CCOCC4)c(F)c3)n2)o1
19 | < 100 | COc1cc(N2CCN(CCS(C)(=O)=O)CC2)c(C)cc1Nc1nccc(-c2sc(C3CCOCC3)nc2-c2cccc(NS(=O)(=O)c3c(F)cccc3F)c2F)n1
20 | < 100 | COc1ccc(Nc2nccc(-c3sc(C(C)C)nc3-c3cccc(NS(=O)(=O)c4c(F)cccc4F)c3)n2)cc1N(C)C
21 | 100 to 1000 | CN(C)c1nc(-c2ccc(F)c(NS(=O)(=O)c3c(F)cccc3F)c2)c(-c2ccnc(Nc3ccc(N4CCOCC4)nc3)n2)s1
22 | 100 to 1000 | CC(C)c1nc(-c2ccc(F)c(NS(=O)(=O)c3c(F)cccc3F)c2)c(-c2ccnc(Nc3ccc(N4CCN(CCS(C)(=O)=O)CC4)c(F)c3)n2)s1
23 | 100 to 1000 | CCc1nc(-c2cccc(CNS(=O)(=O)c3ccccc3)c2)c(-c2ccnc(Nc3ccc(N4CCN(C(C)=O)CC4)nc3)n2)s1
